Assay [1] has as its system BJ-TERT/LT/ST/RAS^V12 cells. Description: Cell death in the presence of a pan-caspase inhibitor. The conditions noted are these: 50 μM inhibitor. The assay is classed as cell-based, human.
Assay [2] concerns BJ-TERT/LT/ST/RAS^V12 cells. In words: Annexin V-FITC apoptosis assay. The conditions noted are these: camptothecin-treated (1 μM); untreated 6%. The class given is cell-based, human. How it is done:
BJ-TERT/LT/ST/RAS^V12 cells were seeded at 1×10^6 cells per dish in 100 mm dishes and allowed to grow overnight. Cells were treated with erastin (5 or 10 μg/ml) for 6, 8 or 11 h. A camptothecin-treated (0.4 μg/ml) control was maintained, treated at the time of seeding for 20 hours. After the treatment, cells were harvested with trypsin/EDTA and washed once with fresh medium containing serum and then twice with phosphate buffered saline. Cells were resuspended in 1× binding buffer (BD Pharmingen) at a concentration of 1×10^6 cells/ml. 100 μl (1×10^5 cells) was incubated with 5 μl of Annexin V-FITC (BD Pharmingen) and propidium iodiode (BD Pharmingen) for 15 minutes in the dark at room temperature. Then 400 μl of the 1× binding buffer was added and the cells analyzed by flow cytometry (Becton-Dickinson). Data were acquired and analyzed using Cellquest software.

For assay [3], the system named is cleaved, active caspase 3 in BJ-TERT/LT/ST/RAS^V12 cells. In words: Western blot for active caspase-3. Particulars: western blot of lysates. The class given is cell-based, human. Here is the method: BJ-TERT/LT/ST/RAS^V12 cells were seeded prior to the experiment at 5×10^5 cells in 60 mm dishes. The cells were treated with 5 μg/ml erastin (9 μM) for 2, 4, 6, 8 or 10 hours. One dish was maintained for camptothecin treatment (0.4 μg/ml for 24 h) as a positive control. Cells were lysed after each time point in lysis buffer (50 mM HEPES KOH pH 7.4, […], 2 mM EDTA, 0.5% Triton X-100, 1.5 mM Na3VO4, 50 mM NaF, 10 mM sodium pyrophosphate, 10 mM sodium beta-glycerophosphate and protease inhibitor tablet (Roche)). Protein content was quantified using a Biorad protein assay reagent. Equal amounts of protein were resolved on 16% SDS-polyacrylamide gel. The electrophoresed proteins were transblotted onto a PVDF membrane, blocked with 5% milk and incubated with anti-active caspase-3 polyclonal antibody (BD Pharmingen) at 1:1500 dilution overnight at 4° C. The membrane was then incubated in anti-rabbit-HRP (Santa Cruz Biotechnology) at 1:3000 dilution for 1 hour and developed with an enhanced chemiluminescence mixture (NEN life science, Renaissance). To test for equivalent loading in each lane, blots were stripped, blocked, and probed with an anti-eIF-4E antibody (BD Transduction laboratories) at 1:1000 dilution.

In assay [4] the test system is BJ-TERT/LT/ST/RAS^V12 cells relative to BJ-TERT cells. In words: Alamar Blue viability assay, tumorigenic versus wild type cells. The assay is classed as cell-based, human. Here is the method: Alamar Blue is reduced by mitochondrial enzyme activity in viable cells, causing both colorimetric and fluorescent changes (Nociari et al., 1998, J. Immunol. Methods 13, 157-167). Cells were seeded at a density of 6000 cells (50 μl) per well in a 384-well black, clear bottom plate using a syringe bulk dispenser (Zymark). 10 μl was removed from a two-fold serially diluted erastin plate (6× final concentration) using a 384 fixed cannula head, making the final concentration 20 μg/ml in the well with highest concentration. The plates were incubated for 24 hours. Alamar Blue (Biosource International) was added to each well by diluting 1:10 and incubated for 16 hours at 37° C. Fluorescence intensity was determined using a Packard Fusion platereader with an excitation filter centered on 535 nm and an emission filter centered on 590 nm. Average percentage inhibition at each concentration was calculated. Error bars indicate one standard deviation.
The effect of erastin or erastin B on cell viability was measured using Alamar Blue as described in Example 3 in both tumorigenic BJ-TERT/LT/ST/RAS^V12 (BJELR) cells and wild type BJ-TERT (BJEH) cells. In this example, cell viability was measured at 1, 2, and 3 days after treatment with erastin or erastin B (data for days 1 and 3 not shown). Average percentage inhibition at each concentration was measured.
The effect on cell viability of each of the two isomers of Compound 20 was measured using the Alamar Blue assay described in Example 3 in both tumorigenic BJ-TERT/LT/ST/RAS^V12 cells and wild type BJ-TERT cells. Average percentage inhibition at each concentration was measured.
The effect on cell viability of erastin or Compound 21 was measured using the Alamar Blue assay as described in Example 3 in both tumorigenic BJ-TERT/LT/ST/RAS^V12 cells and in wild type BJ-TERT cells. Average percentage inhibition at each concentration was measured. […]
Background: The colour change of resazurin is a common sign of viable cells or microbes.

Assay [5] has as its system VDAC isoforms, Prohibitin and Ribophorin. Description: Pull-down with immobilized erastin derivatives. The assay is classed as binding, human. Particulars: pull-down from lysates, mitochondrial extract or MonoQ fractions. How it is done: Pull-down assays using immobilized erastin and cell lysates were used in an initial attempt to identify erastin binding partners inside a cell. Initial pull-down experiments were performed with HEK293, BJEH and BJELR whole cell lysates. In those experiments, a methyl-amino derivative of erastin (ERA-A6) was immobilized to Affigel 10 and incubated with lysate under standard pull-down conditions. The beads were washed and either eluted with 100 μM erastin or 0.8% N-lauroylsarcosine (sarkosyl). The eluates were subjected to mass spectrometric analysis.
Since Prohibitin and the VDAC isoforms are all mitochondrial proteins, Applicants enriched potential erastin targets by isolating mitochondria from cell lysates. The isolated mitochondrial extracts were then used in erastin pull-down experiments. In those erastin pull-down experiments with the mitochondrial extracts, Prohibitin, VDAC and Ribophorin were also identified by Western blot. […] The pull-downs were performed with 0.25 mg total protein of the mitochondrial extract. The beads were incubated with the extracts for 1.5 h at 4° C. and then washed several times. Proteins bound to the immobilized Erastin derivatives were eluted with 50 μL of 0.8% N-lauroylsarcosine solution. […]
Ribophorin and Prohibitin are rather acidic proteins with a calculated PI of 5.57 (Prohibitin) and 5.96 (Ribophorin I). […]

In the case of `COC(=O)CC(NC(=O)OC(C)(C)C)C(=O)CF` (centres unmarked) [Boc-Asp(Ome)-fluoromethyl ketone], the “block of compound-induced cell death” value in assay [1] is reported as “partially blocked cell death induced by CPT, but not by erastin”.

Take `CC[C@@]1(O)C(=O)OCc2c1cc1n(c2=O)Cc2cc3ccccc3nc2-1` [Camptothecin, reference compound]: the “percentage of cells in M1 region (Annexin V staining)” value in assay [2] amounted to 38%. Moreover, the “activated caspase 3” value in assay [3] is “harbor activated caspase 3”.

Consider `CCOc1ccccc1-n1c(C(C)N2CCN(C(=O)COc3ccc(CN)cc3)CC2)nc2ccccc2c1=O` (centres unmarked) [Compound 19], for which the “lethality in BJ-TERT/LT/ST/RAS^V12 (BJELR) cells compared to BJ-TERT (BJEH) cells” value in assay [4] is “selective lethality”. Besides, in assay [5], the “binding of cellular proteins to the immobilized compound” value is “Prohibitin and Ribophorin were identified as binding to the Erastin beads”.

The values above are taken from patent US20070161644A1, “Erastin analogs and uses thereof” (priority 2005, published 2007).
